{
  "source": "patent US20220213060A1",
  "about": "“Crystal Form of Quinazolinone Compound and Preparation Method Therefor” (Luoxin Healthcare Science and Technology Development …, priority 2019, published 2022)",
  "key": {"[1]": {"assay": "Hygroscopicity by dynamic vapor sorption (DVS)", "format": "physicochemical", "settings": "25° C. and 80% RH; listed as crystal form A of the compound represented by formula (I)", "procedure": "1.4 Dynamic Vapor Sorption (DVS) Method of the Present Disclosure\nInstrument model: SMS DVS Advantage dynamic vapor sorption instrument\nDetection conditions: 10-20 mg of sample was placed in a DVS sample tray for testing.\nDetailed DVS parameters were as follows:\nEquilibrium: dm/dt=0.01%/min: (shortest: 10 min, longest: 180 min)\nDrying: drying at 0% RH for 120 min\nRH (%) test gradient: 10%\nRH (%) test gradient range: 0%-90%-0%\nHygroscopicity evaluation is classified as follows:\n20 mg of the crystal form A of the compound represented by formula (I) was placed in the DVS sample tray for testing."}, "[2]": {"biological_target": "Mutant PI3Kα (E545K) (Homo sapiens, UniProt P42336, E545K)", "sequence (P42336 whole entry E545K)": "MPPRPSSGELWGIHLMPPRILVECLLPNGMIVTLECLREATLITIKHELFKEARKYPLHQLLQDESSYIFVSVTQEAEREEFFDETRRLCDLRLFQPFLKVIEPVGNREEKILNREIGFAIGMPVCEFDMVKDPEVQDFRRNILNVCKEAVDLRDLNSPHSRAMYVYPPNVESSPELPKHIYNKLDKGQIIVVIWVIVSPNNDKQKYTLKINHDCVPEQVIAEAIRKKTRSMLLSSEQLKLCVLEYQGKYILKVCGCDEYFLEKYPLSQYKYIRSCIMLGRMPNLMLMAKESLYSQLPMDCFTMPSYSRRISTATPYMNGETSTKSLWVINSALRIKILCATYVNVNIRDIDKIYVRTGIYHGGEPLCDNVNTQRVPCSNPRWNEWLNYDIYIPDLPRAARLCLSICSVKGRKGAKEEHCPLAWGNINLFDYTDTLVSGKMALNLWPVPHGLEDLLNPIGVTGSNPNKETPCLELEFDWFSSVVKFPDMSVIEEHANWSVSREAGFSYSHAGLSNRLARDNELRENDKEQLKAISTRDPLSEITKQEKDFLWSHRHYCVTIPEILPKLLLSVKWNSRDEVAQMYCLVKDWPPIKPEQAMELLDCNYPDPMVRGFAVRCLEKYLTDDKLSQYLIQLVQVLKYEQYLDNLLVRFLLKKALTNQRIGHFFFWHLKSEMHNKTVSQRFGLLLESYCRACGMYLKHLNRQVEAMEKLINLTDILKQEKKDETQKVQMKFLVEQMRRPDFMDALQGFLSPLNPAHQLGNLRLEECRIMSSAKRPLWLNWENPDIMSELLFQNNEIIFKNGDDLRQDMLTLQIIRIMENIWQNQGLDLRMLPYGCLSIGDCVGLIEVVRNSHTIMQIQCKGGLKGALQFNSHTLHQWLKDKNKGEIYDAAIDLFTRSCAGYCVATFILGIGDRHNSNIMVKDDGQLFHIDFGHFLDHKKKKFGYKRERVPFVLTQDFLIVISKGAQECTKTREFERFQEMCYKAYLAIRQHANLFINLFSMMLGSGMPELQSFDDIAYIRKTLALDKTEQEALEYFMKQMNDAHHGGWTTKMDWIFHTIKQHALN", "sequence (P27986 whole entry partner)": "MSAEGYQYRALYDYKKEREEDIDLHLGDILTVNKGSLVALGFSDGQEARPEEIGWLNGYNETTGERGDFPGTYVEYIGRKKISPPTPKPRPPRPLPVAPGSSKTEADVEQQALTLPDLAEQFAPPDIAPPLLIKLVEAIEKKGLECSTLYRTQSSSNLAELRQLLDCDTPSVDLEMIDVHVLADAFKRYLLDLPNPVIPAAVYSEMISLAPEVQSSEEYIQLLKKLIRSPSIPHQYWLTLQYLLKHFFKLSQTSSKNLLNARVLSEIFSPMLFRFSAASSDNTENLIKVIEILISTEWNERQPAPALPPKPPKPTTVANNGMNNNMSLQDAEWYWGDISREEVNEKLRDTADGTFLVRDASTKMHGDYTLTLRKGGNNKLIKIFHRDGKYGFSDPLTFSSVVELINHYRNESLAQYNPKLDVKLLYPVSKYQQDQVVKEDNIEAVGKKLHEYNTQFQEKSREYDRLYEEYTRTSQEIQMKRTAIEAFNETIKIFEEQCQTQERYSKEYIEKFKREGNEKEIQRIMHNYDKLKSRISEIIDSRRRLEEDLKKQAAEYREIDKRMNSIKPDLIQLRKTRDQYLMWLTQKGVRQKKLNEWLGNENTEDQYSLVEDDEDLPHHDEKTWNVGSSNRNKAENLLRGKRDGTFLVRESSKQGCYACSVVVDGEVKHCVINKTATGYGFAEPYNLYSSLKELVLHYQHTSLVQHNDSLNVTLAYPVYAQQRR", "assay": "In vitro enzymatic activity test, mutant PI3Kα (E545K)", "format": "biochemical", "source_text": "The crystal form A of the compound represented by formula (I) has a strong inhibitory effect on both wild-type and mutant PI3Kα kinases. […] The crystal form A of the compound represented by formula (I) has excellent selectivity to the other three subtypes of PI3K, and its inhibitory activity against PI3Kα is 149/7.44/6.61 times higher than that of PI3Kβ/δ/γ, respectively. The specific experimental method was the same as experimental embodiment 8. […] The specific experimental method was the same as experimental embodiment 9.\nThe lipid kinase reaction was carried out in a suitable substrate and under ATP conditions, then the activity of the kinase was detected by ADP-Glo™ kit in two steps. Step 1: the kinase reaction was terminated, in which the residual ATP was completely removed and only ADP was retained; step 2: kinase detection reagent was added to convert ADP to ATP, accompanied by fluorescein/luciferase reaction. Finally, the fluorescence value output was converted into kinase activity.\nExperimental Materials and Equipment:\n2) Kit: ADP-Glo™ lipid kinase and PIP2:3PS kit (Promega #V1792)\nThe reagent kit contains: 1 mM PIP2:3PS, 10× lipid dilution buffer, 1 M magnesium chloride, 10 mM ATP, 10 mM ADP, ADP-Glo reagent, detection buffer and detection substrate. […]\n(16) Fluorescence values were measured on the Envision instrument."}, "[3]": {"tested_on": "HR+/HER2+ human breast cancer BT-474 (PIK3CA amplified)", "assay": "In vivo pharmacodynamic study, BT-474 nude mouse subcutaneous xenograft tumor model", "design": "species or system BALB/c nude mice", "procedure": "The phenotype of human BT-474 breast cancer cells is HR+/HER2+, and it has PIK3CA amplification. This experiment evaluated the efficacy of the crystal form A of the compound represented by formula (I) in a human breast cancer xenograft tumor model, using BYL-719 as a reference.\nCell culture: Human breast cancer BT474 cells were cultured in vitro in a single layer, the culture condition was Hybri-Care medium with 10% fetal bovine serum and the cells were incubated in 5% CO2 at 37° C. Digestion and passage treatment with trypsin-EDTA was carried out twice a week. When the cell saturation was 80%-90% and the number reached the requirement, the cells were collected, counted and inoculated.\nAnimals: BALB/c nude mice, female, 6-8 weeks old, weighing 18-20 g. A total of 85 animals were required, and provided by Shanghai Bikai experimental animal Co., Ltd.\nTumor inoculation: Estrogen tablets (0.36 mg/tablet) were subcutaneously inoculated on the left back of each mouse, three days later, 0.2 mL (10×10^6 cells) of BT474 cells (with matrigel in a volume ratio of 1:1) were subcutaneously inoculated on the right back of each mouse, group administration was started when the average tumor volume reached 150 mm^3−200 mm^3.\nTumor-bearing mice in each administration group had good tolerance to the tested compounds."}, "[4]": {"settings": "10 mg/kg, oral once a day for 20 days"}, "[5]": {"settings": "10 mg/kg, oral once a day for 20 days, listed as crystal form A of the compound represented by formula (I)"}, "[6]": {"settings": "20 mg/kg, oral once a day for 20 days"}, "[7]": {"settings": "20 mg/kg, oral once a day for 20 days, listed as crystal form A of the compound represented by formula (I)"}, "[8]": {"settings": "40 mg/kg, oral once a day for 20 days"}, "[9]": {"settings": "40 mg/kg, oral once a day for 20 days, listed as crystal form A of the compound represented by formula (I)"}},
  "data": [
    {"smiles": "CNC(=O)[C@H](C)Cn1cnc2ccc(-c3cnc(OC)c(NS(=O)(=O)c4ccc(F)cc4F)c3)cc2c1=O", "values": [
      {"measurement": "Classification for hygroscopicity", "setting": "[1]", "result": "slightly hygroscopic (2% > ΔW% ≥ 0.2%)"},
      {"measurement": "ΔW, hygroscopical weight gain", "setting": "[1]", "result": 0.885, "unit": "%"},
      {"measurement": "IC50", "setting": "[2]", "result": 1.13, "unit": "nM"},
      {"measurement": "Anti-tumor effect (in words)", "setting": "[3]; 10 mg/kg group", "result": "strong anti-tumor effect"},
      {"measurement": "T/C %", "setting": "[3]; [4]", "result": 50.18, "unit": "%"},
      {"measurement": "TGI %", "setting": "[3]; [4]", "result": 65.34, "unit": "%"},
      {"measurement": "T/C %", "setting": "[3]; [5]", "result": 50.18, "unit": "%"},
      {"measurement": "TGI %", "setting": "[3]; [5]", "result": 65.34, "unit": "%"},
      {"measurement": "Anti-tumor effect (in words)", "setting": "[3]; 20 mg/kg group", "result": "strong anti-tumor effect"},
      {"measurement": "T/C %", "setting": "[3]; [6]", "result": 37.92, "unit": "%"},
      {"measurement": "TGI %", "setting": "[3]; [6]", "result": 80.21, "unit": "%"},
      {"measurement": "T/C %", "setting": "[3]; [7]", "result": 37.92, "unit": "%"},
      {"measurement": "TGI %", "setting": "[3]; [7]", "result": 80.21, "unit": "%"},
      {"measurement": "Anti-tumor effect (in words)", "setting": "[3]; 40 mg/kg group", "result": "significant anti-tumor effects"},
      {"measurement": "T/C %", "setting": "[3]; [8]", "result": 21.16, "unit": "%"},
      {"measurement": "TGI %", "setting": "[3]; [8]", "result": 105.65, "unit": "%"},
      {"measurement": "T/C %", "setting": "[3]; [9]", "result": 21.16, "unit": "%"},
      {"measurement": "TGI %", "setting": "[3]; [9]", "result": 105.65, "unit": "%"},
      {"measurement": "Dose to play the effect", "setting": "[3]; oral once a day for 20 days", "result": 10, "unit": "mg/kg"}
    ]}
  ]
}
